Columns and labels:
murine CD4+ cells = experiment: Cytokine generation (ELISA) in murine CD4+ cells stimulated with anti-CD3 and anti-CD28; assay type: cell-based, mouse; conditions: for Influence on IL-10 / TNF release: CD4+ cells
Text: (§1) Experimental animals (C57BL/6 mice, BALB/c mice and Dark Agouti rats) were obtained from the Animal House Facility of the Institute for Biological Research “Sinisa Stanković”, Belgrade, Serbia. Spleen cells (SPC) were isolated from murine spleens and lymph node cells (LNC) were obtained from rat cervical lymph nodes of untreated animals. Draining lymph node cells (DLNC) were obtained from popliteal lymph nodes 8-10 days after immunization of rats with myelin basic protein (guinea pig MBP, kind gift from professor Alexander Fluegel, University of Goettingen, Germany) and complete Freund's adjuvant (CFA, Difco, Detroit, Mich.). The organs were mechanically disrupted, passed through 40-μm nylon mesh filter and the resulting suspension was collected by centrifugation. Red blood cells from single cell suspensions obtained from spleens were lysed using RBC Lysis Buffer (eBioscience, San Diego, Calif.). CD4+ cells were purified from SPC using biotin conjugated antibody specific for CD4 (eBioscience) and IMag SAv particles plus (BD Biosciences, San Diego, Calif.). Obtained purity of CD4 population was more than 97% as determined by flow cytometry. SPC and LNC were seeded at 5×10^6/ml/well, DLNC at 2.5×10^6/ml/well and CD4+ cells at 1×10^6/ml/well of 24-well plates. Cells infiltrating spinal cords (SC) were obtained from SC of rats immunized with MBP+CFA at the time when rats suffered from severe clinical signs of experimental autoimmune encephalomyelitis (EAE). Rats were perfused with sterile PBS, SC were homogenized, adjusted to 30% Percoll (Sigma-Aldrich) and overlaid on 70% Percoll gradient. Following centrifugation at 870 g for 50 min the SC cells (SCC) were recovered from the […] Percoll interface and washed in RPMI-1640 medium. SCC were seeded at 0.5×106/200 μl/well of 96-well plates. SPC and LNC were stimulated with 2.5 μg/ml concanavalin A (ConA, Sigma-Aldrich), DLNC with MBP (10 ng/ml), CD4+ cells with anti-CD3 and anti-CD28 antibody (1 μg/ml each, both from eBioscience) and SCC were left untreated.
(§2) Cytokine concentration in cell culture supernatants was determined by sandwich ELISA using MaxiSorp plates (Nunc, Rochild, Denmark) and anti-cytokine paired antibodies according to the manufacturer's instructions. Samples were analyzed in duplicate for murine/rat IL-17, murine IL-10, murine TNF, murine IL-4 (eBioscience), murine IFN-γ, rat IFN-γ, rat IL-4 (R&D, Minneapolis, Minn.), rat IL-10 and rat TNF (BD Biosciences). The results were calculated using standard curves made on the basis of known concentrations of the appropriate recombinant cytokines.
CD4+ cells were purified from C57BL/6 SPC and stimulated with anti-CD3 and anti-CD28 antibodies in the presence of various concentrations of Saq-NO for 24 hours. The influence of Saq-NO on cytokine generation was compared to its influence on CD4+ cell viability and to the influence of Saq on the same parameters. […] Thus, Saq-NO directly affects T cell cytokine production.

murine SPC = experiment: Cytokine generation (ELISA) in ConA-stimulated murine SPC; assay type: cell-based, mouse; conditions: for Effects on cytokines at low concentrations: unfractionated spleen cells and/or purified murine CD4 T cells, concentrations of 2.5 and 5 mM
Text: as §1, §2
In order to investigate the potential of Saq-NO to modulate cytokine production in immune cells, rat LNC were stimulated with ConA in the presence of various concentrations of Saq-NO for 24 hours and the levels of IFN-g, IL-4, IL-17, IL-10 and TNF were determined in cell-free culture supernatants. […] Effects of Saq-NO on the cytokine generation were examined in murine SPC, as well. Here, Saq-NO was applied in parallel with Saq and their influence on the cytokine generation and cell viability was compared. Further, two strains of mice were used, i.e. BALB/c and C57BL/6 mice which are prototypical Th2 and Th1 mice, respectively (Lohoff et al., 1998). […] Moreover, the influence of Saq-NO on the cytokines was evident with concentrations of the agent that had no effect on SPC viability (FIG. 2).

PLP-induced EAE = PLP-induced EAE in SJL mice; assay type: in vivo
Text: Seven to 8 weeks-old male C57Bl6 mice and 6 to 7 weeks-old female SJL mice (Harlan Laboratories srl, San Pietro al Natisone, Udine, Italy) were used in the experiments. They were kept under standard laboratory conditions (non specific pathogen free) with free access to food (Harlan Global Diet 2018) and water and were allowed to adapt at least one week to their environment before commencing the study.
PLP (139-151) was synthesized by Genemed synthesis (San Francisco Calif.). EAE was induced as described by J. St. Louis et al. (4). The mice were immunized with 75 μg PLP emulsified in CFA with 6 mg/ml Mycobacterium tuberculosis H37RA (Difco, Detroit, Mich., USA) to make a 1:1 emulsion. Each mouse received subcutaneous injections of 200 μl emulsion divided among four sites draining into the axillary and inguinal lymph nodes. Pertussis toxin (Calbiochem, Nottingham, UK) was used as a co-adjuvant and was administered i.p. at the dose of […] on day 0 and 2 post immunization. The mice were observed every day by measuring their body weights and clinical signs of EAE until 30 days after immunization. These clinical grading were carried out by an observer unaware of the treatment: 0=no sign of disease; 0.5=partial tail paralysis; 1=tail paralysis; 1.5=tail paralysis+partial unilateral hindlimb paralysis; 2=tail paralysis+hindlimb weakness or partial hindlimb paralysis; 2.5=tail paralysis+partial hindlimb paralysis (lowered pelvi); 3=tail paralysis+complete hindlimb paralysis; 3.5=tail paralysis+complete hindlimb paralysis+incontinence; 4=tail paralysis+hindlimb paralysis+weakness or partial paralysis of forelimbs; 5=moribund or dead.
Four groups of 7/8 mice were treated under a late prophylactic regime from day 7 to day 30 as follow:
Group 1: Saquinavir 10 mg/Kg (i.p. once daily)
Group 2: Saq-NO 10 mg/Kg (s.c. once daily)
Group 3: Saq-NO 20 mg/Kg (i.p. once daily)
Group 4: DMSO/H2O (vehicle) (i.p. once daily)

[1] = anti-CD3 and anti-CD28, 24 hours
[2] = late prophylactic, 10 mg/Kg once daily

Row | Compound | Generation of IFN-g, IL-4 and IL-17 (murine CD4+ cells; CD4+ cells of C57BL/6 SPC, anti-CD3 and anti-CD28, 24 hours) | Influence on IL-10 (murine CD4+ cells; [1]) | TNF release (murine CD4+ cells; [1]) | Production of IFN-g, IL-4, IL-17, TNF (murine SPC; murine SPC) | Production of IL-10 (murine SPC; murine SPC) | Effect on the release of IFN-g, IL-4, IL-17, IL-10 and TNF, compared with Saq (murine SPC; murine SPC of BALB/c and C57BL/6 mice, ConA) | Effects on cytokines at low concentrations (murine SPC) | Cumulative score and duration of the disease compared to vehicle treated mice (PLP-induced EAE; [2]) | Clinical course of the disease (PLP-induced EAE; late prophylactic, 10 mg/Kg once daily, day 7 to 30) | Cum score and duration compared to vehicle-treated mice (PLP-induced EAE; late prophylactic, high dose 20 mg/Kg i.p. once daily) | Disease after interruption of the treatment (PLP-induced EAE; observed for further 20 days) | IL-17 secretion from purified CD4+ T cells at low concentrations (murine CD4+ cells; concentrations of 2.5 and 5 mM)
1 | CC(C)(C)NC(=O)C1C[C@@H]2CCCC[C@@H]2CN1CC(O[N+](=O)[O-])[C@H](Cc1ccccc1)NC(=O)C(CC(N)=O)NC(=O)c1ccc2ccccc2n1 (stereo partly shown) [Saq-NO, nitric ester of Saquinavir] | more effectively than Saq | similarly potent | did not modulate | inhibited | stimulated | more profound effect | already observable | significantly lower | ameliorated | lower but not significant | most evidently | 
2 | CC(C)(C)NC(=O)[C@@H]1C[C@@H]2CCCC[C@@H]2CN1C[C@@H](O)[C@H](Cc1ccccc1)NC(=O)[C@H](CC(N)=O)NC(=O)c1ccc2ccccc2n1 [Saq, (2S)—N-[(2S,3R)-4-[(3S)-3-(tert-butylcarbamoyl)-decahydroisoquinolin-2-iy]-3-hydroxy-1-phenylbutan-2-il]-2-(quinolin-2-ylformamido)butanediamide, reference compound] |  | similarly potent | did not modulate |  |  |  | No effects | lower but not significant |  |  |  | inhibitory effect

Source: patent publication US20150283127A1, “SAQUINAVIR-NO FOR IMMUNOMODULATION” (ONCONOX APS, priority 2012, published 2015)
